Source: paper PMC11748363, “Antimicrobial and Antiproliferative Properties of 2‐Phenyl‐N‐(Pyridin‐2‐yl)acetamides” (Chemical Biology & Drug Design, 2025)
In brackets after ≈: the same amount, converted by molar mass. Like-named read-outs stand apart in the source and are kept apart here.

Assays:
[1] = tested on: Mycobacterium tuberculosis H37Ra; experiment: Antimycobacterial microdilution broth MIC (resazurin), Mtb H37Ra; format: cell-based; conditions: for MIC: Mycobacterium tuberculosis, H37RA, read-out: MIC Mtb H37Ra
[2] = tested on: Mycolicibacterium smegmatis DSM 43465; experiment: Antimycobacterial microdilution broth MIC (resazurin), M. smegmatis; format: cell-based; conditions: DSM43465, read-out: MIC M. smegmatis
[3] = tested on: Mycolicibacterium aurum DSM 43999; experiment: Antimycobacterial microdilution broth MIC (resazurin), M. aurum; format: cell-based; conditions: DSM43999, read-out: MIC M. aurum
HepG2 cell line = experiment: Cytotoxicity CellTiter 96, HepG2; format: cell-based, human; conditions: Homo sapiens, HepG2, 24 h, 24 h incubation; ^c compound precipitated in the testing medium; ^d over the limit of tested concentrations
[4] = tested on: Staphylococcus aureus CCM 4223, ATCC 29213; experiment: Antibacterial microdilution broth MIC, SA; format: cell-based; conditions: Staphylococcus aureus
[5] = tested on: Staphylococcus aureus subsp. aureus CCM 4750, ATCC 43300 (MRSA); experiment: Antibacterial microdilution broth MIC, MRSA; format: cell-based; conditions: Staphylococcus aureus
[6] = tested on: Staphylococcus epidermidis CCM 4418, ATCC 12228; experiment: Antibacterial microdilution broth MIC, SE; format: cell-based
[7] = tested on: Enterococcus faecalis CCM 4224, ATCC 29212; experiment: Antibacterial microdilution broth MIC, EF; format: cell-based
[8] = tested on: Escherichia coli CCM 3954, ATCC 25922; experiment: Antibacterial microdilution broth MIC, EC; format: cell-based
[9] = tested on: Acinetobacter baumannii DSM 30007, ATCC 19606; experiment: Antibacterial microdilution broth MIC, ACI; format: cell-based
[10] = tested on: Pseudomonas aeruginosa CCM 3955, ATCC 27853; experiment: Antibacterial microdilution broth MIC, PA; format: cell-based
[11] = tested on: Candida albicans CCM 8320, ATCC 24433; experiment: Antifungal microdilution broth MIC, CA
[12] = tested on: Candida krusei CCM 8271, ATCC 6258; experiment: Antifungal microdilution broth MIC, CK; conditions: Pichia kudriavzevii
[13] = tested on: Candida parapsilosis CCM 8260, ATCC 22019; experiment: Antifungal microdilution broth MIC, CP; conditions: Lodderomyces parapsilosis
[14] = tested on: Candida tropicalis CCM 8264, ATCC 750; experiment: Antifungal microdilution broth MIC, CT
[15] = tested on: Aspergillus fumigatus ATCC 204305; experiment: Antifungal microdilution broth MIC, AF
[16] = tested on: Lichtheimia corymbifera CCM 8077; experiment: Antifungal microdilution broth MIC, LC
[17] = tested on: Trichophyton interdigitale CCM 8377, ATCC 9533; experiment: Antifungal microdilution broth MIC, TI; conditions: Trichophyton interdigitale
[18] = tested on: Aspergillus flavus CCM 8363; experiment: Antifungal microdilution broth MIC, AFla
[19] = tested on: Klebsiella pneumoniae CCM 4415, ATCC 10031; experiment: Antibacterial microdilution broth MIC, KP
[20] = ATCC204305, 24 h, read-out: MIC AF 24h
[21] = ATCC204305, 48 h, read-out: MIC AF 48h
[22] = CCM8077, 24 h, read-out: MIC LC 24h
[23] = CCM8077, 48 h, read-out: MIC LC 48h
[24] = CCM8363, 24 h, read-out: MIC AFla 24h
[25] = CCM8363, 48 h, read-out: MIC AFla 48h

For `O=C(Cc1cccc(Cl)c1)Nc1ccccn1` [Compound 16, 2-(3-chlorophenyl)-N-(pyridin-2-yl)acetamide], the MIC ([1]; Calculated from MIC (μg/mL)) was 253 µM, the MIC [1] was 62.5 µg/mL and the MIC [2] was > 500 µg/mL. For the same compound, the MIC [3] was 250 µg/mL (≈ 1010 µM), the IC50 (HepG2 cell line) was > 250 µM and the MIC ([4]; 24 h, read-out: MIC SA 24h) was 500 µM (≈ 123 µg/mL). For the same compound, the MIC ([4]; 48 h, read-out: MIC SA 48h) was 500 µM (≈ 123 µg/mL), the MIC ([5]; 24 h, read-out: MIC MRSA 24h) was > 500 µM and the MIC ([5]; 48 h, read-out: MIC MRSA 48h) was > 500 µM. The MIC ([6]; 24 h, read-out: MIC SE 24h) was 125 µM (≈ 30.8 µg/mL), the MIC ([6]; 48 h, read-out: MIC SE 48h) was 250 µM (≈ 61.7 µg/mL) and the MIC ([7]; 24 h, read-out: MIC EF 24h) was > 500 µM. The MIC ([7]; 48 h, read-out: MIC EF 48h) was > 500 µM, the MIC ([8]; 24 h, read-out: MIC EC 24h) was > 500 µM and the MIC ([8]; 48 h, read-out: MIC EC 48h) was > 500 µM. The MIC ([9]; 24 h, read-out: MIC ACI 24h) was > 500 µM, the MIC ([9]; 48 h, read-out: MIC ACI 48h) was > 500 µM and the MIC ([10]; 24 h, read-out: MIC PA 24h) was > 500 µM. For the same compound, the MIC ([10]; 48 h, read-out: MIC PA 48h) was > 500 µM, the MIC ([11]; 24 h, read-out: MIC CA 24h) was > 500 µM and the MIC ([11]; 48 h, read-out: MIC CA 48h) was > 500 µM. The MIC ([12]; 24 h, read-out: MIC CK 24h) was > 500 µM, the MIC ([12]; 48 h, read-out: MIC CK 48h) was > 500 µM and the MIC ([13]; 24 h, read-out: MIC CP 24h) was > 500 µM. For the same compound, the MIC ([13]; 48 h, read-out: MIC CP 48h) was > 500 µM, the MIC ([14]; 24 h, read-out: MIC CT 24h) was > 500 µM and the MIC ([14]; 48 h, read-out: MIC CT 48h) was > 500 µM. The MIC [15, 20] was > 500 µM, the MIC [15, 21] was > 500 µM and the MIC [16, 22] was > 500 µM. The MIC [16, 23] was > 500 µM, the MIC ([17]; 72 h, read-out: MIC TI 72h) was 500 µM (≈ 123 µg/mL) and the MIC ([17]; 120 h, read-out: MIC TI 120h) was 500 µM (≈ 123 µg/mL). The MIC [18, 24] was > 500 µM, the MIC [18, 25] was > 500 µM and the “MIC KP 24h” value [19] was > 500 µM. The “MIC KP 48h” value [19] was > 500 µM.
In the case of `O=C(Cc1cccc(Cl)c1)Nc1cccc(Cl)n1` [Compound 18], the MIC ([1]; Calculated from MIC (μg/mL)) is reported as 55.6 µM, the MIC [1] is reported as 15.6 µg/mL and the “SI (selectivity index)” value ([1]; SI = HepG2 IC50 (μM)/MIC MtbH37Ra (μM), calculated for compounds with MIC ≤ 31.25 μg/mL) is reported as > 1.8. For the same compound, the MIC [2] was > 500 µg/mL, the MIC [3] was 62.5 µg/mL (≈ 222 µM) and the IC50 (HepG2 cell line) was > 100 µM. The MIC ([4]; 24 h, read-out: MIC SA 24h) was > 500 µM, the MIC ([4]; 48 h, read-out: MIC SA 48h) was > 500 µM and the MIC ([5]; 24 h, read-out: MIC MRSA 24h) was > 500 µM. For the same compound, the MIC ([5]; 48 h, read-out: MIC MRSA 48h) was > 500 µM, the MIC ([6]; 24 h, read-out: MIC SE 24h) was > 500 µM and the MIC ([6]; 48 h, read-out: MIC SE 48h) was > 500 µM. For the same compound, the MIC ([7]; 24 h, read-out: MIC EF 24h) was > 500 µM, the MIC ([7]; 48 h, read-out: MIC EF 48h) was > 500 µM and the MIC ([8]; 24 h, read-out: MIC EC 24h) was > 500 µM. For the same compound, the MIC ([8]; 48 h, read-out: MIC EC 48h) was > 500 µM, the MIC ([9]; 24 h, read-out: MIC ACI 24h) was > 500 µM and the MIC ([9]; 48 h, read-out: MIC ACI 48h) was > 500 µM. The MIC ([10]; 24 h, read-out: MIC PA 24h) was > 500 µM, the MIC ([10]; 48 h, read-out: MIC PA 48h) was > 500 µM and the MIC ([11]; 24 h, read-out: MIC CA 24h) was > 500 µM. The MIC ([11]; 48 h, read-out: MIC CA 48h) was > 500 µM, the MIC ([12]; 24 h, read-out: MIC CK 24h) was > 500 µM and the MIC ([12]; 48 h, read-out: MIC CK 48h) was > 500 µM. The MIC ([13]; 24 h, read-out: MIC CP 24h) was > 500 µM, the MIC ([13]; 48 h, read-out: MIC CP 48h) was > 500 µM and the MIC ([14]; 24 h, read-out: MIC CT 24h) was > 500 µM. For the same compound, the MIC ([14]; 48 h, read-out: MIC CT 48h) was > 500 µM, the MIC [15, 20] was > 500 µM and the MIC [15, 21] was > 500 µM. For the same compound, the MIC [16, 22] was > 500 µM, the MIC [16, 23] was > 500 µM and the MIC ([17]; 72 h, read-out: MIC TI 72h) was 500 µM (≈ 141 µg/mL). The MIC ([17]; 120 h, read-out: MIC TI 120h) was 500 µM (≈ 141 µg/mL), the MIC [18, 24] was > 500 µM and the MIC [18, 25] was > 500 µM. For the same compound, the “MIC KP 24h” value [19] was > 500 µM and the “MIC KP 48h” value [19] was > 500 µM.
